In patent US20040136931A1, “Photoprotective cosmetic compositions comprising 3-(2-azacycloalkylidene)-1,3-dihydroindol-2-one compounds” (SOCIETE L'OREAL S.A., priority 2002, published 2004):

What was measured:
[1] = Sun screening properties (UV absorption); type: physicochemical; conditions: 92.8% acetonitrile+7.2% DMSO
From the text: This compound has the following sun screening properties:
λmax=350 nm (92.8% acetonitrile+7.2% DMSO)

[2] = RPE (Resonance Paramagnetic Electronic) study of pro-oxidizing activity under irradiation; conditions: formulated medium, irradiation under the same conditions as the photostability test (solar simulator)
[3] = Photostability: irradiation of an oily film in a solar simulator; type: physicochemical; conditions: one hour of irradiation in a solar simulator (UVA=18.6 mW/cm^2, UVB=0.6 mW/cm^2); oily film containing 0.5% of the compound

Compound | λmax [1] [nm] | E1% ([1]; at λmax) | εmax ([1]; at λmax) | pro-oxidizing activity [2] | residual level of the compound after irradiation [3] [%]
CCN1C(=O)/C(=C2/CCCN2C)c2ccccc21 [Compound 1, 1-Ethyl-3-(1-methylpyrrolidin-2-ylidene)-1,3-dihydroindol-2-one] | 350 | 722 | 17501 1.mol^−1.cm^−1 | does not manifest any pro-oxidizing activity | 92
CCN1C(=O)/C(=C2/CCCN2)c2ccccc21 [Compound 2, 1-Ethyl-3-pyrrolidin-2-ylidine-1,3-dihydroindol-2-one] | 326 | – | 22600 1.mol^−1.cm^−1 | – | –
O=C1Nc2ccccc2/C1=C1\CCCN1 [Compound 3, 3-Pyrrolidin-2-ylidene-1,3-dihydroindol-2-one] | 328 | – | 8100 1.mol^−1.cm^−1 | – | –
